This is an account of results in patent publication US8168668B2, “Compounds” (AstraZeneca AB, priority 2005, dated 2012).

For one data set, the target named is T1, hVR1 (Homo sapiens, UniProt Q8NER1).
T1 construct: expressed in transfected cells
Briefly: hVR1 FLIPR (Fluorometric Image Plate Reader) screening assay. The class given is cell-based. To be noted: inhibition of capsaicin-induced intracellular calcium increase. Here is the method: 1. hVR1 FLIPR (Fluorometric Image Plate Reader) Screening Assay
Transfected CHO cells, stably expessing hVR1 (15,000 cells/well) are seeded in 50 ul media in a black clear bottom 384 plate (Greiner) and grown in a humidified incubator (37° C., 2% CO2), 24-30 hours prior to experiment.
Subsequently, the media is removed from the cell plate by inversion and 2 μM Fluo-4 is added using a multidrop (Labsystems). Following the 40 minutes dye incubation in the dark at 37° C. and 2% CO2, the extracellular dye present is washed away using an EMBLA (Scatron), leaving the cells in 40 ul of assay buffer (1×HBSS, 10 mM D-Glucose, 1 mM CaCl2, 10 mM HEPES, 10×7.5% NaHCO3 and 2.5 mM Probenecid).
FLIPR Assay—IC50 Determination Protocol
For IC50 determinations the fluorescence is read using FLIPR filter 1 (em […]). A is cellular baseline recording is taken for 30 seconds, followed by a 20 μl addition of 10, titrated half-log concentrations of the test compound, yielding cellular concentration ranging from 3 μM to 0.1 nM. Data is collected every 2 seconds for a further 5 minutes prior to the addition of a VR1 agonist solution: 20-50 nM solution of capsaicin by the FLIPR pipettor. The FLIPR continues to collect data for a further 4 minutes. Compounds having antagonistic properties against the hVR1 will inhibit the increase in intracellular calcium in response to the capsaicin addition. This consequently leading to a reduction in fluorescence signal and providing a reduced fluorescence reading, compared with no compound, buffer controls. Data is exported by the FLIPR program as a sum of fluorescence calculated under the curve upon the addition of capsaicin. Maximum inhibition, Hill slope and IC50 data for each compound are generated. […]

In data set [1] the test system is carrageenan-induced heat hyperalgesia. Briefly: Carrageenan model, heat plantar test (paw withdrawal latency). Type of data set: in vivo. To be noted: rat, orally administered; for EC50 / ED50: po; for EC50 / ED50 / EC80: tested at Tmax; for Extrapolated Emax: non-linear regression; for Emax observed: reversal of heat hyperalgesia.
The next data set can be described thus: aqueous solubility test. To be noted: aqueous medium, pH 7.4, aqueous buffer. Type of data set: physicochemical.
The subject of data set [2] is FCA-induced heat hyperalgesia. Briefly: Freund's Complete Adjuvant (FCA) model, heat plantar test (paw withdrawal latency). Type of data set: in vivo. The note with it: rat, orally administered.

SMILES strings stand for the structures. ≈ marks a conversion by molar mass, not a printed value.

Broadly, the IC50 is the concentration needed to halve the response being measured. As usually defined, the EC50 is the midpoint of the concentration-response curve. Broadly, the ED50 is the midpoint of the dose-response relation. Usually EC80 stands for the concentration needed for an effect of 80%. As a reminder, the solubility is the concentration that dissolves in the medium under given conditions. Read a low solubility as a poorly soluble substance.

T1 sequence (Q8NER1 whole entry): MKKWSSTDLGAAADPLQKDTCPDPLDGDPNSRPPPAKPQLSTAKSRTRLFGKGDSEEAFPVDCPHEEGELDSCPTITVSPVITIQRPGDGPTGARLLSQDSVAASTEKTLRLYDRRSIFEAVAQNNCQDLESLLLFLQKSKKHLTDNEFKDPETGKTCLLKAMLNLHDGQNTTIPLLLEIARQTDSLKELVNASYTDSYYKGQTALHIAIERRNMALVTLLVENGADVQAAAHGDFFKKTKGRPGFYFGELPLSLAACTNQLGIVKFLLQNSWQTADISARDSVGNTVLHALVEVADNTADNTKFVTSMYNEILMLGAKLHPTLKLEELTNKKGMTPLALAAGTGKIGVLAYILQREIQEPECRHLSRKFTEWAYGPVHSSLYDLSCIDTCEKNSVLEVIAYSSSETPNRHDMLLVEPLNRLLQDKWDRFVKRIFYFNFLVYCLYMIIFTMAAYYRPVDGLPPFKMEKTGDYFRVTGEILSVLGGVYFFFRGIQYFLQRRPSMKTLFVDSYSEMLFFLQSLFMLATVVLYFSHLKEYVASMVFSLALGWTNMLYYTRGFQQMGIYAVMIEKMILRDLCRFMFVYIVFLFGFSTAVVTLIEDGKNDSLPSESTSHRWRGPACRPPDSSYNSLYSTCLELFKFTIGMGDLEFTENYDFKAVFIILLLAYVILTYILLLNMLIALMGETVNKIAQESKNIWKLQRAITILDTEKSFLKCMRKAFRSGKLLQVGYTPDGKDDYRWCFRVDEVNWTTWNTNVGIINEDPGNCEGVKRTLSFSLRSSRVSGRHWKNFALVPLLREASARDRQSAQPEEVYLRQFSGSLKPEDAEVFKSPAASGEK

For `CC(C)Oc1ccc([C@H](C)NC(=O)Cn2cnc3cccc([N+](=O)[O-])c32)cc1` [Example 1, N-[(1S)-1-(4-isopropoxyphenyl)ethyl]-2-(7-nitro-1H-benzimidazol-1-yl)acetamide], the IC50 on hVR1 came to 1 nM.
With `C[C@H](NC(=O)Cn1cnc2cccc([N+](=O)[O-])c21)c1ccc(OC(CF)CF)cc1` [Example 2, N-((1S)-1-{4-[2-fluoro-1-(fluoromethyl)ethoxy]phenyl}ethyl)-2-(7-nitro-1H-benzimidazol-1-yl)acetamide], in data set [1], a half-maximal effect (EC50) was put at 105 nM, the 50% effective dose (ED50) was 1.3 µmol/kg, the “Extrapolated Emax” value is 79% and the Emax observed is 79%. Further, in data set [1], the EC80 came out at 170 nM.
With `C#CC(C)Oc1ccc([C@H](C)NC(=O)Cn2cnc3cccc([N+](=O)[O-])c32)cc1` (stereo partly drawn) [Example 4, N-((1S)-1-{4-[(1-methylprop-2-yn-1-yl)oxy]phenyl}ethyl)-2-(7-nitro-1H-benzimidazol-1-yl)acetamide], the concentration for half-maximal inhibition (IC50) at hVR1 amounted to 3 nM.
Same read-out and setting: the value for `CC(NC(=O)Cn1cnc2cccc([N+](=O)[O-])c21)c1ccc(OC2CCCC2)nc1` (stereo not shown) [Example 12, N-{1-[6-(cyclopentyloxy)pyridine-3-yl]ethyl}-2-(7-nitro-1H-benzimidazol-1-yl)acetamide] was 5 nM; that for `CC[C@H](C)Oc1ccc([C@H](C)NC(=O)Cn2cnc3cccc([N+](=O)[O-])c32)cc1` [Example 15, N-[(1S)-1-(4-{[(1S)-1-methylpropyl]oxy}phenyl)ethyl]-2-(7-nitro-1H-benzimidazol-1-yl)acetamide] was 1 nM.
As for `CC(NC(=O)Cn1cnc2cccc([N+](=O)[O-])c21)c1ccc(C(F)(F)Cl)cc1` (stereo not shown) [Example 16, N-(1-{4-[chloro(difluoro)methyl]phenyl}ethyl)-2-(7-nitro-1H-benzimidazol-1-yl)acetamide], on hVR1, the IC50 amounted to 10 nM.
Regarding `CC(NC(=O)Cn1cnc2cccc([N+](=O)[O-])c21)c1ccc(OC(F)(F)C(F)F)cc1` (stereo not shown) [Example 22, 2-(7-nitro-1H-benzimidazol-1-yl)-N-{1-[4-(1,1,2,2-tetrafluoroethoxy)phenyl]ethyl}acetamide], the concentration for half-maximal inhibition (IC50) at hVR1 was found to be 5 nM.
Still for that read-out and setting: the result for `CC(NC(=O)Cn1cnc2cccc([N+](=O)[O-])c21)c1ccc(OC(F)(F)F)cc1` (stereo not shown) [Example 36, 2-(7-nitro-1H-benzimidazol-1-yl)-N-{1-[4-(trifluoromethoxy)phenyl]ethyl}acetamide] reads 9 nM; that for `CC(NC(=O)Cn1cnc2cccc([N+](=O)[O-])c21)c1ccc(C(F)(F)F)cc1` (stereo not shown) [Example 37, 2-(7-nitro-1H-benzimidazol-1-yl)-N-{1-[4-(trifluoromethyl)phenyl]ethyl}acetamide], 6 nM.
On the same count and under the same terms, the result for `CC(NC(=O)Cn1cnc2cccc([N+](=O)[O-])c21)c1ccc(OC2CCCC2)c(F)c1` (stereo not shown) [Example 39, N-{1-[4-(cyclopentyloxy)-3-fluorophenyl]ethyl}-2-(7-nitro-1H-benzimidazol-1-yl)acetamide] reads 1 nM; that for `CC(NC(=O)Cn1cnc2cccc([N+](=O)[O-])c21)c1ccc(C2CC2)cc1` (stereo not shown) [Example 40, N-[1-(4-cyclopropylphenyl)ethyl]-2-(7-nitro-1H-benzimidazol-1-yl)acetamide], 3 nM.
In turn, `CC(NC(=O)Cn1cnc2cccc([N+](=O)[O-])c21)c1ccc(OC2CCN(C)CC2)c(C(F)(F)F)c1` (stereo not shown) [Example 46, N-{1-[4-[(1-Methylpiperidin-4-yl)oxy]-3-(trifluoromethyl)phenyl]ethyl}-2-(7-nitro-1H-benzimidazol-1-yl)acetamide] returned a solubility in “aqueous solubility test” of 100 µM (≈ 50.5 µg/mL).
With `CO[C@@H](C)COc1ccc(C(C)NC(=O)Cn2cnc3cccc([N+](=O)[O-])c32)cc1C(F)(F)F` (stereo partly drawn) [Example 47, N-{1-[4-{[(2S)-2-Methoxypropyl]oxy}-3-(trifluoromethyl)phenyl]ethyl}-2-(7-nitro-1H-benzimidazol-1-yl)acetamide], the concentration for half-maximal inhibition (IC50) on hVR1 amounted to 8 nM.
The same measure, in the same setting: the value for `CC(COc1cccc(C(F)(F)F)c1)NC(=O)Cn1cnc2cccc([N+](=O)[O-])c21` (stereo not shown) [Example 48, N-{1-methyl-2-[3-(trifluoromethyl)phenoxy]ethyl}-2-(7-nitro-1H-benzimidazol-1-yl)acetamide] was 7 nM.
Turning to `C[C@H](NC(=O)Cn1cnc2ccc(F)c(F)c21)c1ccc(C(C)(C)C)cc1` [Example 52, N-[(1S)-1-(4-tert-butylphenyl)ethyl]-2-(6,7-difluoro-1H-benzimidazol-1-yl)acetamide], the EC50 was 500 nM in data set [1] and 1600 nM in data set [2] (po, tested at Tmax). The ED50 in data set [1] was determined as 37.4 µmol/kg; in data set [2] (po, tested at Tmax), 120 µmol/kg. Also, the “Extrapolated Emax” value in data set [1] and in data set [2] (non-linear regression) was >100% each time. Also, the Emax observed was 74% in data set [1] and 78% in data set [2] (reversal of heat hyperalgesia). Further, the 80% effect concentration (EC80) was determined as 1400 nM in data set [1] and 4600 nM in data set [2] (tested at Tmax).
